Data from article PMC11369160, “An outer membrane porin-lipoprotein complex modulates elongasome movement to establish cell curvature in Rhodospirillum rubrum” (Nature Communications, 2024).

What was measured:
Experiment in all cases: microscale thermophoresis
[1] = target: T1, A. baumannii OmpA (OmpA-like peptidoglycan-binding domain) (Acinetobacter baumannii, UniProt Q6RYW5)
T1 construct: gene omp38; isolated periplasmic OmpA-like domain, residues 221-339; His6-SUMO tag cut by Ulp1; E. coli Rosetta(DE3)pLysS; RED-NHS labelled
T1 sequence (Q6RYW5 221-339): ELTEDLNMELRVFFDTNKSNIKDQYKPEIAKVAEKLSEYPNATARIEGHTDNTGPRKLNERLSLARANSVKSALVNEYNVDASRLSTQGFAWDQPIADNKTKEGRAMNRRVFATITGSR

[2] = target: T2, OmpA-like peptidoglycan-binding domain of R. rubrum PapS (Rhodospirillum rubrum, UniProt Q2RP23, R223A); settings: MST buffer 25 mM HEPES/NaOH pH 8, 50 mM NaCl, 0.1% Tween; 25 °C; 100 nM RED-NHS labelled protein; mDAP 1.5 µM to 50 mM
T2 construct: gene Rru_A3328; isolated C-terminal OmpA-like domain, residues 156-273; His6-SUMO tag cut by Ulp1; E. coli Rosetta(DE3)pLysS; RED-NHS labelled
T2 sequence (Q2RP23 entry or part of it R223A): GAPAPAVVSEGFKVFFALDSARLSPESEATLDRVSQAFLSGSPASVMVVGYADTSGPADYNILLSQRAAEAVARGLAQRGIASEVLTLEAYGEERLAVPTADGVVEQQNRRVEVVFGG

[3] = target: T3, OmpA-like peptidoglycan-binding domain of R. rubrum PapS (Rhodospirillum rubrum, UniProt Q2RP23)
T3 construct: gene Rru_A3328; isolated C-terminal OmpA-like domain, residues 156-273; His6-SUMO tag cut by Ulp1; E. coli Rosetta(DE3)pLysS; RED-NHS labelled
T3 sequence (Q2RP23 entry or part of it): as the sequence (Q2RP23 entry or part of it R223A) above, with A68R counted along it
Text: microscale thermophoresis on OmpA-like peptidoglycan-binding domain of R. rubrum PapS | isolated OmpA-like domain of PapS bound mDAP in vitro, albeit with lower affinity

Compound: N[C@H](CCC[C@H](N)C(=O)O)C(=O)O [mDAP]
- Kd [1]: 9 µM
- mDAP binding [2]: In vitro analysis verified that the mutant domain no longer showed mDAP-binding activity
- Kd [3]: 2500 µM
